According to patent US9801833B2, “Compositions and methods using tiglic aldehyde” (NESTEC S.A., priority 2013, dated 2017):
pEC50: −log10 of the molar value. Where two headings read alike, the source gives them in different places.

Columns and labels:
mice [1] = assay: gastric emptying after a single ingestion in mice (FIG. 6); type: in vivo; conditions: vs sham gavage
mice [2] = assay: body weight gain in mice with chronic ingestion (FIG. 3); type: in vivo; conditions: mice chronically fed high fat diet containing 0.2 wt %, vs same diet without
TRPM8 [3] = target: T1, TRPM8 (Homo sapiens, UniProt Q7Z2W7); conditions: cited from earlier work
T1 construct: expressed in transfected cells

mice [4] = assay: short term food intake after a single ingestion in mice (FIG. 5); type: in vivo; conditions: vs sham gavage
TRPV1 [5] = target: T2, TRPV1 (Homo sapiens, UniProt Q8NER1); conditions: cited from earlier work
T2 construct: expressed in transfected cells

mice [6] = assay: insulin sensitivity in mice with chronic ingestion (FIG. 4); type: in vivo; conditions: mice chronically fed high fat diet containing 0.2 wt %, vs same diet without
TRPA1 [7] = target: T3, TRPA1 (Homo sapiens, UniProt O75762); conditions: read-out: EC50 of TRPA1 activation; cited from earlier work
T3 construct: expressed in transfected cells

"empty" cells = assay: in vitro activation of "empty" cells (FIG. 7); type: cell-based
TRPV1 [8] = target: T2, TRPV1; assay: in vitro activation of TRPV1 in cells (FIG. 7); type: cell-based; conditions: FIG. 7, triangles
TRPM8 [9] = target: T1, TRPM8; assay: desensitization of TRPM8 by pretreatment fifteen minutes before icilin (FIGS. 8A, 8B); type: cell-based; conditions: applied to cells fifteen minutes before icilin
Experimental: (§1) Specifically, tiglic aldehyde was applied to cells fifteen minutes before cinnamaldehyde, icilin and capsaicin, which are specific agonists for TRPA1, TRPM8 and TRPV1 cation channels, respectively. After specific agonist application, the cation channel […] was measured. […] The left bars in each graph represent the controls lacking tiglic aldehyde pretreatment, the right bars in each graph represent the samples including tiglic aldehyde pretreatment.

TRPA1 [10] = target: T3, TRPA1; assay: in vitro activation of TRPA1 in cells (FIG. 7); type: cell-based
TRPM8 [11] = target: T1, TRPM8; assay: in vitro activation of hTRPM8 in cells (FIG. 7); type: cell-based; conditions: FIG. 7, squares
TRPA1 [12] = target: T3, TRPA1; assay: desensitization of TRPA1 by pretreatment fifteen minutes before cinnamaldehyde (FIGS. 8A, 8B); type: cell-based; conditions: applied to cells fifteen minutes before cinnamaldehyde
Experimental: as §1

[13] = Source text: Without wishing to be bound by theory, the present inventors believe that activation of TRPA1 is effective to 1) help to provoke the swallowing reflex of dysphagic patients, 2) decrease appetite by delaying gastric emptying, 3) reduce body weight gain, and 4) reduce glycemia by improving insulin sensitivity or glucose tolerance, 5) improve mood, memory or cognition. Tiglic aldehyde is described as having fresh, fruity, green, pulpy and almond nutty nuances (Fenaroli's Handbook of Flavor Ingredients, sixth edition), making it more pleasant compared to other TRPA1 agonists.
TRPV1 [14] = target: T2, TRPV1; assay: desensitization of TRPV1 by pretreatment fifteen minutes before capsaicin (FIGS. 8A, 8B); type: cell-based; conditions: applied to cells fifteen minutes before capsaicin
Experimental: as §1

T1 sequence (Q7Z2W7 whole entry): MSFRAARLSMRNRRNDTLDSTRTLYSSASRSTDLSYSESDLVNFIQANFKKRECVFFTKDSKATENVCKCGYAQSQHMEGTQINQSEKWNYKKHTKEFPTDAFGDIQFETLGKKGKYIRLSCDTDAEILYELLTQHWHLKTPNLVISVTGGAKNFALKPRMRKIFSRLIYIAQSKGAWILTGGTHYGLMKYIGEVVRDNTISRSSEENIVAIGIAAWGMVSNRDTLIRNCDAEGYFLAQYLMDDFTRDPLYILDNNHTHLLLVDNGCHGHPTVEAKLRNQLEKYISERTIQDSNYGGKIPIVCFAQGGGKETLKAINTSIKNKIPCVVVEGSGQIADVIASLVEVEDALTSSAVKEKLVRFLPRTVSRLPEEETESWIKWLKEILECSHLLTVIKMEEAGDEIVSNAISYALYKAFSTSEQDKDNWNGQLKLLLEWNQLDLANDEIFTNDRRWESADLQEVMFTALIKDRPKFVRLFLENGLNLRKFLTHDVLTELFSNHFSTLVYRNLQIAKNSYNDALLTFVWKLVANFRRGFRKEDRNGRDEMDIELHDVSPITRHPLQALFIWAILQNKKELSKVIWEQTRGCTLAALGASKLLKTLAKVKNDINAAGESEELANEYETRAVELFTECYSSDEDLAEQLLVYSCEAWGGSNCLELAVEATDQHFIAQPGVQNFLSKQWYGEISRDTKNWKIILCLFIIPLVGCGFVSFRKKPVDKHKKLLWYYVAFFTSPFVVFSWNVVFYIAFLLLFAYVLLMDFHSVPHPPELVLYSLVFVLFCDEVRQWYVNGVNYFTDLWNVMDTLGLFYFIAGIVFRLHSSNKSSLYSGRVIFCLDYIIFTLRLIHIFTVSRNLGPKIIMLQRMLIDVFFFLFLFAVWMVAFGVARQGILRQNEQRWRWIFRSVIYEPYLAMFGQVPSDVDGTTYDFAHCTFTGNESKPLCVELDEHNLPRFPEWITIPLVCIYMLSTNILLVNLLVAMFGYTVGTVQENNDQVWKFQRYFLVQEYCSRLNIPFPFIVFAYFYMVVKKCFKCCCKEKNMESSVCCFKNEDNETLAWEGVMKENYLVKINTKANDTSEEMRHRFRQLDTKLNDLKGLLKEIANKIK
T3 sequence (O75762 whole entry, species assumed): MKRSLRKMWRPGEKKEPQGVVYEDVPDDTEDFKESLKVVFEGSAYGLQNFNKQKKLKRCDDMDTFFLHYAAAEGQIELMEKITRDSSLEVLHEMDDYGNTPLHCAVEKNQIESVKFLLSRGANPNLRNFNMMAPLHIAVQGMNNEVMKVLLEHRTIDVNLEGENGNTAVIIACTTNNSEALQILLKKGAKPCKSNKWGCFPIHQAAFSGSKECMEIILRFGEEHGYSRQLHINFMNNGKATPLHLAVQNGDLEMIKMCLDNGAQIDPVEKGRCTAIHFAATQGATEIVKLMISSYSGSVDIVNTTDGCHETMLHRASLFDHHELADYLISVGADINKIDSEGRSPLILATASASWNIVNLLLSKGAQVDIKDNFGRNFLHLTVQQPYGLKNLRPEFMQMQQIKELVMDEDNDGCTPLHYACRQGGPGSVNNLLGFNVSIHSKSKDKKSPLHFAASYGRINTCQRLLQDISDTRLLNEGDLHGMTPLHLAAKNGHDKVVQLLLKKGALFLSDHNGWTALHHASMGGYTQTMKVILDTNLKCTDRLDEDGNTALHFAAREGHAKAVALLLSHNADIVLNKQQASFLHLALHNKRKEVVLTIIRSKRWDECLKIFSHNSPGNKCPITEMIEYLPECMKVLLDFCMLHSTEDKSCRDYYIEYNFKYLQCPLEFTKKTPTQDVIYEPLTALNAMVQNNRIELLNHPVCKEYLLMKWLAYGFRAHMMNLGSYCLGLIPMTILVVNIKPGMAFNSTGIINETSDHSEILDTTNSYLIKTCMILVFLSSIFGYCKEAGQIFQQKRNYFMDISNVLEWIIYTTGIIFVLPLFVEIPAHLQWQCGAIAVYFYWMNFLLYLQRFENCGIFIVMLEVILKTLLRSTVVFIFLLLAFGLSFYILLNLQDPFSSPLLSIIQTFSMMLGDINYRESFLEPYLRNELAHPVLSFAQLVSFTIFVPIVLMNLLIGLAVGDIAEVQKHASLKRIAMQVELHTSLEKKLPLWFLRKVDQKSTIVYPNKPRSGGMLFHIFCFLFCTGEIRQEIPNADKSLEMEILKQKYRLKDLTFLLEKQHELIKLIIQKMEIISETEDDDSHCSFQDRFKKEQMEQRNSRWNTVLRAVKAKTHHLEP
T2 sequence (Q8NER1 whole entry, species assumed): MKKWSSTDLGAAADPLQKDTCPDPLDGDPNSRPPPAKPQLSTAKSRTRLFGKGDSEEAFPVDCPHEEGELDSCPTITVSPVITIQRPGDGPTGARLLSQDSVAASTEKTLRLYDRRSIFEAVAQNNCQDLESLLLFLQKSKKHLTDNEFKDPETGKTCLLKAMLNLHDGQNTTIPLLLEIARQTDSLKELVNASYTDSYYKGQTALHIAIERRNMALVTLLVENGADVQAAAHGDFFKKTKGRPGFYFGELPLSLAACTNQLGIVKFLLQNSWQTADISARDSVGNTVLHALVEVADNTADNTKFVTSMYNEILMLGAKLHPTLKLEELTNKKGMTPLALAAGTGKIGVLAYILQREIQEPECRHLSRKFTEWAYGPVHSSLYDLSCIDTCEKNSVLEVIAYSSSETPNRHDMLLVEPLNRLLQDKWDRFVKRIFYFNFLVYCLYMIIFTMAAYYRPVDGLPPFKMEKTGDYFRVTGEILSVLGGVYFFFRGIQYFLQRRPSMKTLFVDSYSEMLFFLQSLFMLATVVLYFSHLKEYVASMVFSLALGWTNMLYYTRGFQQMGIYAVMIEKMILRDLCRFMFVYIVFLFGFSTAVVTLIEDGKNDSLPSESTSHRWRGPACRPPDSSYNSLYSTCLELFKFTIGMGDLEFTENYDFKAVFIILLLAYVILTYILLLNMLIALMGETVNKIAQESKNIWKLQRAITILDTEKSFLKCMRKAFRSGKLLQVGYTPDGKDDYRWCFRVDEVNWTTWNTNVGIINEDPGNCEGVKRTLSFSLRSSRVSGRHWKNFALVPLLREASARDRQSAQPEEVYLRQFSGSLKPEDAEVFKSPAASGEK

Row | SMILES | gastric emptying (mice [1]) | body weight gain (mice [2]) | activation of TRPM8 (TRPM8 [3]) | short term food intake (mice [4]) | activation of TRPV1 (TRPV1 [5]) | insulin sensitivity (mice [6]) | pEC50 (TRPA1 [7]) | activation of "empty" cells ("empty" cells) | activation of TRPV1 (TRPV1 [8]) | desensitization of TRPM8 (TRPM8 [9]) | activation of TRPA1 (TRPA1 [10]; FIG. 7, diamonds) | efficacy of TRPA1 activation relative to cinnamaldehyde (TRPA1 [10]; relative to known TRPA1 agonist cinnamaldehyde) [%] | activation of hTRPM8 (TRPM8 [11]) | desensitization of TRPA1 (TRPA1 [12]) | irritancy [13] | desensitization of TRPV1 (TRPV1 [14])
1 | O=CC=Cc1ccccc1 [cinnamaldehyde] | delayed gastric emptying | gained less weight | not | reduction in short term food intake | not | improved insulin sensitivity | ~4.22 | – | – | – | – | – | – | – | – | –
2 | C/C=C(\C)C=O [tiglic aldehyde] | – | – | – | – | – | – | – | no activation was observed | no activation was observed | does not desensitize | activated TRPA1 (diamonds) in a dose-dependent fashion | 120 | no activation was observed | does not desensitize | not an irritant | does not desensitize
